From patent US7803818B2, “Amorphous form of 1,2-dihydropyridine compound” (Eisai R&D Management Co., Ltd., priority 2005, dated 2010)

Key:
AMPA receptor = conditions: see Patent Document 1 (WO/JP01/96308); cited from earlier work
[1] = Solubility in JP2 fluid after shaking 5 minutes (shake flask method); type: physicochemical; conditions: for Concentration (solubility in JP2 fluid after shaking 5 minutes): JP2 fluid pH 6.8, about 5 mg in 5 mL, shaking 5 minutes at room temperature, filtration, HPLC
Procedure: Measurement of Solubility in JP2 Fluid after Shaking 5 minutes (Shake Flask Method)
Sample solutions were prepared by placing each sample (about 5 mg) in test tube, adding 5 mL of “2nd fluid” as described in General Tests (disintegration test) of Japanese Pharmacopeia (JP2 fluid: pH 6.8), and shaking 5 minutes at room temperature, followed by filtration. These sample solutions were analyzed using high performance liquid chromatography (HPLC), and calculated the concentration.
HPLC System: LC-10AT System (from Shimadzu Corporation)
Detector: ultraviolet absorptiometer (wavelength: 290 nm)
Column: YMC Pack Pro C18, 4.6 mm I.D.×150 mm (from YMC, Japan)
Column temperature: 35° C.
Auto sampler temperature: 25° C.
A: water/acetonitrile/ammonium acetate (900:100:1, v/v/w)
B: water/acetonitrile/ammonium acetate (100:900:1, v/v/w)
(Isocratic Condition: B Concentration=40%)

| Structure (SMILES) | antagonistic action against AMPA receptor (AMPA receptor) | Concentration (solubility in JP2 fluid after shaking 5 minutes) [1] [µg/mL] | solubility in a solution such as JP2 fluid ([1]; JP2 fluid (2nd fluid of Disintegration Test, Japanese pharmacopoeia)) |
| --- | --- | --- | --- |
| N#Cc1ccccc1-c1cc(-c2ccccn2)cn(-c2ccccc2)c1=O [compound (1), 3-(2-cyanophenyl)-5-(2-pyridyl)-1-phenyl-1,2-dihydropyridin-2-one] | significant antagonistic action |  |  |
| N#Cc1ccccc1-c1cc(-c2ccccn2)cn(-c2ccccc2)c1=O [Reference Example 1, 3-(2-cyanophenyl)-5-(2-pyridyl)-1-phenyl-1,2-dihydropyridin-2-one, reference compound] |  | 4.8 |  |
| N#Cc1ccccc1-c1cc(-c2ccccn2)cn(-c2ccccc2)c1=O [Example 1] |  | 12.5 | excellent solubility |
